# According to ChEMBL document CHEMBL4138122, “Azaphenothiazines - promising phenothiazine derivatives. An insight into nomenclature, synthesis, structure elucidation and biological properties” (Eur J Med Chem, 2017):
# Columns and labels:
# [1] = Displacement of [3H]-diazepam from benzodiazepine receptor in rat brain membranes after 30 mins; type: cell membranes, Membrane
# C32 = assay: Cytotoxicity against human C32 cells; type: functional, cell-based
# MDA-MB-231 = assay: Cytotoxicity against human MDA-MB-231 cells; type: functional, cell-based
# SNB-19 = assay: Cytotoxicity against human SNB19 cells; type: functional, cell-based
# [2] = target: Intercellular adhesion molecule 1 (Homo sapiens, UniProt P05362); assay: Inhibition of ICAM1 (unknown origin)
# MCF7 = assay: Cytotoxicity against human MCF7 cells; type: functional, cell-based
# Liver = assay: Antioxidant activity in rat liver microsomal membranes assessed as inhibition of Fe(2+)/ascorbate-induced lipid peroxidation; type: functional, microsomes, microsome
# Escherichia coli = assay: Antibacterial activity against Escherichia coli; type: functional; settings: for MIC: Escherichia coli
# Bacillus cereus = assay: Antibacterial activity against Bacillus cereus; type: functional, organism-based
# Rattus norvegicus = assay: Analgesic activity in Sprague-Dawley rat assessed as reduction in phenylbenzoquinone-induced number of writhes at 20 mg/kg, sc incubated for 60 mins; type: functional; design: scale not given: the % may be the effect or the level left
# Staphylococcus aureus = assay: Antibacterial activity against Staphylococcus aureus; type: functional
# Bacillus subtilis = assay: Antibacterial activity against Bacillus subtilis; type: functional
# T47D = assay: Cytotoxicity against human T47D cells; type: functional, cell-based
# [3] = Inhibition of LTB4 formation in rat polymorphonuclear leukocytes preincubated for 2 mins followed by A-23187 addition after 4 mins; type: functional, cell-based
# PBMC = assay: Cytotoxicity in human PBMCs assessed as reduction in cel viability at 50 ug/ml; type: cell-based
# Chain of Intercellular adhesion molecule 1 (P05362 whole entry): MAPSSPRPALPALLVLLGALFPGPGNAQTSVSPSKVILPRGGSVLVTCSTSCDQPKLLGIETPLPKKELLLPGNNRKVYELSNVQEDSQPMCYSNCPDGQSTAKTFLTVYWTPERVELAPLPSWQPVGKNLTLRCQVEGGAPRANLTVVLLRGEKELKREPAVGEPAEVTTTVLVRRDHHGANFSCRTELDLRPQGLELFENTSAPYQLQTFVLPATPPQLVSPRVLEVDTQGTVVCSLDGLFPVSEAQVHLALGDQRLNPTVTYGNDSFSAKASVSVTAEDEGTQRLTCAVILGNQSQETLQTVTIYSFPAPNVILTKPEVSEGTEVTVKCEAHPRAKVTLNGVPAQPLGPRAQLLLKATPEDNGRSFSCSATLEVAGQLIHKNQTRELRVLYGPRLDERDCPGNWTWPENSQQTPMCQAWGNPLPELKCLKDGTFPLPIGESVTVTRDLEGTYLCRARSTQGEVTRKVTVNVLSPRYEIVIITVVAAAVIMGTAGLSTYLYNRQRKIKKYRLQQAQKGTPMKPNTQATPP
smiles,measurement,setting,value
N#Cc1c(O)ncc2c1Nc1cc(Cl)ccc1S2,IC50,[1],310 to 910 nM
COc1ccc2c(c1)Nc1c(c[n+](C)c3ccccc13)S2.[Cl-],IC50,C32,0.5 to 7.5 µg/mL
same,IC50,MDA-MB-231,0.5 to 12 µg/mL
same,IC50,SNB-19,0.7 to 11.5 µg/mL
NC(=O)C1CCN(Cc2ccc3c(c2)Nc2nccnc2S3)CC1,IC50,[2],270 to 1400 nM
FC(F)(F)c1cccc2c1Sc1cnc3ccccc3c1N2,IC50,MCF7,9.76 µg/mL
same,IC50,SNB-19,10 µg/mL
C[n+]1cc2c(c3ccccc31)Nc1ccc(N3CCNCC3)cc1S2.[Cl-],IC50,C32,0.5 to 7.5 µg/mL
same,IC50,MDA-MB-231,0.5 to 12 µg/mL
same,IC50,SNB-19,0.7 to 11.5 µg/mL
Clc1ccc2c(c1)Sc1cc3ccccc3nc1N2,IC50,Liver,2 to 3 µg/mL
C[n+]1cc2c(c3ccccc31)Nc1cccc(O)c1S2.[Cl-],MIC,Escherichia coli,14 µg/mL
c1ccc2c(c1)Nc1nc3ccccc3cc1S2,IC50,Liver,2 to 3 µg/mL
COc1ccc2c(n1)Sc1c3c(c4ccccc4c1=N2)=Nc1cc([N+](=O)[O-])ccc1O3,MIC,Escherichia coli,87.1 to 97.1 µg/mL
same,MIC,Bacillus cereus,87.4 µg/mL
CC(CCC1CCN(Cc2ccc3c(c2)Nc2nccnc2S3)CC1)C(=O)O (centres undefined),IC50,[2],420 to 1000 nM
CN(C)CCCN1c2ccccc2Sc2cnccc21.O=C(O)C(=O)O,Activity,Rattus norvegicus,59 - 86%
C#CCN1c2cccc(C(F)(F)F)c2Sc2cnc3ccccc3c21,IC50,MDA-MB-231,7.71 µg/mL
c1cnc(N2c3ccncc3Sc3ncccc32)nc1,IC50,MCF7,0.73 µg/mL
O=C(O)CC1CCN(Cc2ccc3c(c2)Nc2nccnc2S3)CC1,IC50,[2],530 nM
CCN(CC)CC#CCN1c2ccncc2Sc2ccncc21,IC50,C32,24.8 to 29.2 µg/mL
CCn1c(=O)c2c(c3ccccc31)Nc1ccccc1S2,MIC,Staphylococcus aureus,>=200 ug
O=[N+]([O-])c1cnc2c(c1)Sc1cc(Cl)ccc1N2,inhibition zone (IZ),Escherichia coli,12 mm
same,inhibition zone (IZ),Staphylococcus aureus,8 - 15 mm
same,inhibition zone (IZ),Bacillus subtilis,8 - 12 mm
C#CCN1c2ccncc2Sc2ncccc21,IC50,MCF7,28.4 to 32.9 µg/mL
N#Cc1c(O)ncc2c1Nc1ccccc1S2,IC50,[1],310 to 910 nM
O=C(O)C(=O)O.c1ccc2c(c1)Sc1cnccc1N2CCCN1CCCC1,Activity,Rattus norvegicus,59 - 86%
c1ccc2c3c(cnc2c1)Nc1cnc2ccccc2c1S3,IC50,Liver,1000 nM
C[n+]1cc2c(c3ccccc31)Nc1cc(OCCN3CCCCC3)ccc1S2.[Cl-],IC50,C32,≤ 3 µg/mL
same,IC50,T47D,≤ 3 µg/mL
same,IC50,MDA-MB-231,≤ 3 µg/mL
same,IC50,SNB-19,≤ 3 µg/mL
N#Cc1c2c(c[nH]c1=O)S(=O)(=O)c1c(Cl)cccc1N2,IC50,[1],310 to 910 nM
CNS(=O)(=O)NC1CCN(Cc2ccc3c(c2)Nc2nccnc2S3)CC1,IC50,[2],270 to 1400 nM
COc1ccc2c(c1)Sc1cc3ccccc3nc1N2,IC50,Liver,2 to 3 µg/mL
CN1c2ccncc2Sc2ncccc21,IC50,MCF7,28.4 to 32.9 µg/mL
O=C(O)C1CCN(Cc2ccc3c(c2)Nc2nccnc2S3)CC1,IC50,[2],420 to 1000 nM
NS(=O)(=O)NC1CCN(Cc2ccc3c(c2)Nc2nccnc2S3)CC1,IC50,[2],270 to 1400 nM
CN(C)CCCN1c2ccncc2Sc2ncccc21,IC50,MCF7,11.3 µg/mL
same,IC50,C32,6.3 µg/mL
COc1ccc2c(c1Cl)Sc1nccnc1N2C,IC50,[3],1 to 5 µg/mL
N#Cc1c2c(c[nH]c1=O)Sc1ccc(N)cc1N2,IC50,[1],310 to 910 nM
c1ccc2nc3c(cc2c1)Sc1c(ccc2ccccc12)N3,IC50,Liver,6 µg/mL
O=S(=O)(NC1CCN(Cc2ccc3c(c2)Nc2nccnc2S3)CC1)C(F)(F)F,IC50,[2],270 to 1400 nM
CN1c2ccccc2Sc2nccnc21,IC50,[3],1 to 5 µg/mL
O=[N+]([O-])c1ccc(N2c3ccncc3Sc3ccncc32)c([N+](=O)[O-])c1,IC50,Liver,107000 nM
CN(C)CCN1c2ccccc2Sc2cnccc21.O=C(O)C(=O)O,Activity,Rattus norvegicus,59 - 86%
c1cnc2c(n1)Nc1cc(CN3CCC3)ccc1S2,IC50,[2],270 to 1400 nM
O=[N+]([O-])c1cnc2c(c1)Sc1cc(F)ccc1N2,inhibition zone (IZ),Escherichia coli,7 - 12 mm
same,inhibition zone (IZ),Staphylococcus aureus,8 - 15 mm
same,inhibition zone (IZ),Bacillus subtilis,12 mm
CCN(CC)CC#CCN1c2cnccc2Sc2cccnc21,IC50,C32,26.1 to 27.5 µg/mL
same,IC50,T47D,26.1 to 27.5 µg/mL
same,IC50,SNB-19,26.1 to 27.5 µg/mL
same,Activity,PBMC,<= 22%
O=[N+]([O-])c1cnc2c(c1)Sc1cccc(Br)c1N2,inhibition zone (IZ),Escherichia coli,7 - 12 mm
same,inhibition zone (IZ),Staphylococcus aureus,8 - 15 mm
same,inhibition zone (IZ),Bacillus subtilis,8 - 12 mm
O=[N+]([O-])c1cnc2c(c1)Sc1cc(Br)ccc1N2,inhibition zone (IZ),Escherichia coli,7 - 12 mm
same,inhibition zone (IZ),Staphylococcus aureus,15 mm
same,inhibition zone (IZ),Bacillus subtilis,8 - 12 mm
O=[N+]([O-])c1cnc2c(c1)Sc1cccc(F)c1N2,inhibition zone (IZ),Escherichia coli,7 - 12 mm
same,inhibition zone (IZ),Staphylococcus aureus,8 - 15 mm
same,inhibition zone (IZ),Bacillus subtilis,8 - 12 mm
CC(C)(CCC1CCN(Cc2ccc3c(c2)Nc2nccnc2S3)CC1)C(=O)O,IC50,[2],420 to 1000 nM
c1cnc2c(c1)Nc1ccncc1S2,IC50,MCF7,0.72 µg/mL
same,IC50,C32,0.46 µg/mL
same,IC50,SNB-19,0.46 µg/mL
C[n+]1cc2c(c3ccccc31)Nc1cc(OCCN3CCCC3)ccc1S2.[Cl-],IC50,C32,≤ 3 µg/mL
same,IC50,T47D,≤ 3 µg/mL
same,IC50,MDA-MB-231,≤ 3 µg/mL
same,IC50,SNB-19,≤ 3 µg/mL
O=S(=O)(NC1CCN(Cc2ccc3c(c2)Nc2nccnc2S3)CC1)c1ccccc1,IC50,[2],270 to 1400 nM
